For the assay, the target named is T1, BRM (Homo sapiens, UniProt P51531).
T1 construct: In-Cell Western Screen of BRM Degradation in SW1573 Cells; endogenous in cells; host or cells: SW1573
The assay can be described thus: In-cell Western screen of BRM degradation in SW1573 cells (Dmax and DC50). The format is cell-based. The note with it: BRM degradation, SW1573 cells; for DC50: read-out: DC50; for Dmax: read-out: Dmax (% degraded). The method in brief:
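Adherent SW1573 cultures exposed to test compounds for 18-20 h were processed for in-cell Western after PFA fixation and detergent permeabilization. BRM degradation was reported as Dmax and DC50.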

One may read the DC50 as the midpoint of the concentration-degradation curve. What is called Dmax is the greatest extent of degradation seen.

T1 sequence (P51531 whole entry): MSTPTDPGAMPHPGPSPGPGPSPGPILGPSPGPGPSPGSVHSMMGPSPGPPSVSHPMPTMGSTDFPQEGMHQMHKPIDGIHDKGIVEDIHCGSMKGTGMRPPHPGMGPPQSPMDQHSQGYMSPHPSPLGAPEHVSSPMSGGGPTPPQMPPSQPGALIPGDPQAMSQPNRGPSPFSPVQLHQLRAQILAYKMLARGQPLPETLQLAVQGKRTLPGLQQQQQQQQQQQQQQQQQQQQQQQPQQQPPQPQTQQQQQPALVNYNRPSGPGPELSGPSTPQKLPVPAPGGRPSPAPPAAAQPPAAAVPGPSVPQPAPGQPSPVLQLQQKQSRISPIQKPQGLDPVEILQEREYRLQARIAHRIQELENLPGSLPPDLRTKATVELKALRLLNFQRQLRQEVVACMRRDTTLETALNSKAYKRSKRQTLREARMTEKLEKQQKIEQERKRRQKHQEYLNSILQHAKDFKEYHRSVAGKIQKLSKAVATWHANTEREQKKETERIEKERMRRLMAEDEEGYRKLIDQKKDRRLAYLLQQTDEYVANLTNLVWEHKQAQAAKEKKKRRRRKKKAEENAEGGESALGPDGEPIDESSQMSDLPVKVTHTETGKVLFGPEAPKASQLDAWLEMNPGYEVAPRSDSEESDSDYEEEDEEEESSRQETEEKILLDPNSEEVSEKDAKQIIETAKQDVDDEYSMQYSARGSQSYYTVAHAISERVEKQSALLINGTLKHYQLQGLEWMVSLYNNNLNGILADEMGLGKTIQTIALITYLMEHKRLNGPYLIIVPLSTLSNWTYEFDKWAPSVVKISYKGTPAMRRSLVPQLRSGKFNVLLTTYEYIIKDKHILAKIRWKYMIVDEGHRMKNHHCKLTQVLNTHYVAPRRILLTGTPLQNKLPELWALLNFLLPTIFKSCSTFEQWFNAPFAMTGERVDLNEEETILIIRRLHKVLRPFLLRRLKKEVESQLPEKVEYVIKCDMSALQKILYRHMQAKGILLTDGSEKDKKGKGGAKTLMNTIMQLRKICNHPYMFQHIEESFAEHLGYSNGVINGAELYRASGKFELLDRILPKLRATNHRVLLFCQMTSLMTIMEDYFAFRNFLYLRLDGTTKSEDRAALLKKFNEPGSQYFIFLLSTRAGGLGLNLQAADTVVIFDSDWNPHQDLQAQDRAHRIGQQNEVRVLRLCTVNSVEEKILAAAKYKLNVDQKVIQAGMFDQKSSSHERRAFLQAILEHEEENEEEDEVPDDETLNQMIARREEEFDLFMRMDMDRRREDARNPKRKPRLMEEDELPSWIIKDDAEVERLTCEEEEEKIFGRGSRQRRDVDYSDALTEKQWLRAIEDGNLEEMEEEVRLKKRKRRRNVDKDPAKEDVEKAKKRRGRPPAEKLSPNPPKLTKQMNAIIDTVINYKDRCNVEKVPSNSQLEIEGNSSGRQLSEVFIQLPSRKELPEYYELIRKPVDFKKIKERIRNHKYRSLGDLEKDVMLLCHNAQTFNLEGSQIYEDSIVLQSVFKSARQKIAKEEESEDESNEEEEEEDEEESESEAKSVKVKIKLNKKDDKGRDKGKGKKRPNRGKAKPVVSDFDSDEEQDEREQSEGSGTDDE

Regarding `Cc1ncsc1-c1ccc([C@H](CCO)NC(=O)[C@@H]2C[C@@H](O)CN2C(=O)[C@@H](c2cc(N3CCC(CN4CCC(O[C@H]5C[C@H](Oc6cc(N7C8CCC7CN(c7cc(-c9ccccc9O)nnc7N)C8)ccn6)C5)CC4)CC3)no2)C(C)C)cc1` [compound 661, (2S,4R)-1-((2R)-2-(3-(4-((4-((1r,3r)-3-((4-(3-(3-amino-6-(2-hydroxyphenyl)pyridazin-4-yl)-3,8-diazabicyclo[3.2.1]octan-8-yl)pyridin-2-yl)oxy)cyclobutoxy)piperidin-1-yl)methyl)piperidin-1-yl)isoxazol-5-yl)-3-methylbutanoyl)-4-hydroxy-N-((S)-3-hydroxy-1-(4-(4-methylthiazol-5-yl)phenyl)propyl)pyrrolidine-2-carboxamide], the DC50 was less than 2.5 nM and the Dmax is more than 75%.

Take `Cc1ncsc1-c1ccc([C@@H](CCO)NC(=O)[C@@H]2C[C@@H](O)CN2C(=O)[C@@H](c2cc(N3CCC(CN4CCC(O[C@H]5C[C@H](Oc6cc(N7C8CCC7CN(c7cc(-c9ccccc9O)nnc7N)C8)ccn6)C5)CC4)CC3)no2)C(C)C)cc1` [compound 662, (2S,4R)-1-((2R)-2-(3-(4-((4-((1r,3r)-3-((4-(3-(3-amino-6-(2-hydroxyphenyl)pyridazin-4-yl)-3,8-diazabicyclo[3.2.1]octan-8-yl)pyridin-2-yl)oxy)cyclobutoxy)piperidin-1-yl)methyl)piperidin-1-yl)isoxazol-5-yl)-3-methylbutanoyl)-4-hydroxy-N-((R)-3-hydroxy-1-(4-(4-methylthiazol-5-yl)phenyl)propyl)pyrrolidine-2-carboxamide]: the DC50 is 2.5 to 10 nM and the Dmax is more than 75%.

As to `CC[C@@H](NC(=O)[C@@H]1C[C@@H](O)CN1C(=O)[C@@H](c1cc(N2CCC(CN3CCC(O[C@H]4C[C@H](Oc5cc(N6C7CCC6CN(c6cc(-c8ccccc8O)nnc6N)C7)ccn5)C4)CC3)CC2)no1)C(C)C)c1ccc(-c2scnc2C)cc1` [compound 663, (2S,4R)-1-((2R)-2-(3-(4-((4-((1r,3r)-3-((4-(3-(3-amino-6-(2-hydroxyphenyl)pyridazin-4-yl)-3,8-diazabicyclo[3.2.1]octan-8-yl)pyridin-2-yl)oxy)cyclobutoxy)piperidin-1-yl)methyl)piperidin-1-yl)isoxazol-5-yl)-3-methylbutanoyl)-4-hydroxy-N-((R)-1-(4-(4-methylthiazol-5-yl)phenyl)propyl)pyrrolidine-2-carboxamide], the DC50 fell in the range of 2.5 to 10 nM and the Dmax lay within 50 to 75%.

For `Cc1ncsc1-c1ccc([C@H](C)NC(=O)[C@@H]2C[C@@H](O)CN2C(=O)[C@@H](c2cc(N3CCC(CN4CCC(O[C@H]5C[C@@H](CN6CCC(C(C)n7cc(-c8cc(-c9ccccc9O)nnc8N)cn7)CC6)C5)CC4)CC3)no2)C(C)C)cc1` (stereo partly drawn) [compound 664, (2S,4R)-1-((2R)-2-(3-(4-((4-((1s,3s)-3-((4-(1-(4-(3-amino-6-(2-hydroxyphenyl)pyridazin-4-yl)-1H-pyrazol-1-yl)ethyl)piperidin-1-yl)methyl)cyclobutoxy)piperidin-1-yl)methyl)piperidin-1-yl)isoxazol-5-yl)-3-methylbutanoyl)-4-hydroxy-N-((S)-1-(4-(4-methylthiazol-5-yl)phenyl)ethyl)pyrrolidine-2-carboxamide], the DC50 was less than 2.5 nM and the Dmax is more than 75%.

`Cc1ncsc1-c1ccc([C@H](C)NC(=O)[C@@H]2C[C@@H](O)CN2C(=O)[C@@H](c2cc(N3CCC(CN4CCC(O[C@H]5C[C@@H](N6CCC(C(C)n7cc(-c8cc(-c9ccccc9O)nnc8N)cn7)CC6)C5)CC4)CC3)no2)C(C)C)cc1` (stereo partly drawn) [compound 665, (2S,4R)-1-((2R)-2-(3-(4-((4-((1s,3s)-3-(4-(1-(4-(3-amino-6-(2-hydroxyphenyl)pyridazin-4-yl)-1H-pyrazol-1-yl)ethyl)piperidin-1-yl)cyclobutoxy)piperidin-1-yl)methyl)piperidin-1-yl)isoxazol-5-yl)-3-methylbutanoyl)-4-hydroxy-N-((S)-1-(4-(4-methylthiazol-5-yl)phenyl)ethyl)pyrrolidine-2-carboxamide]: the DC50 is less than 2.5 nM and the Dmax was more than 75%.

As for `Cc1ncsc1-c1c(F)cc([C@H](C)NC(=O)[C@@H]2C[C@@H](O)CN2C(=O)[C@@H](c2cc(N3CCC(CN4CCC(O[C@H]5C[C@H](Oc6cc(N7C8CCC7CN(c7cc(-c9ccccc9O)nnc7N)C8)ccn6)C5)CC4)CC3)no2)C(C)C)cc1F` [compound 666, (2S,4R)-1-((2R)-2-(3-(4-((4-((1r,3r)-3-((4-(3-(3-amino-6-(2-hydroxyphenyl)pyridazin-4-yl)-3,8-diazabicyclo[3.2.1]octan-8-yl)pyridin-2-yl)oxy)cyclobutoxy)piperidin-1-yl)methyl)piperidin-1-yl)isoxazol-5-y1)-3-methylbutanoyl)-N-((S)-1-(3,5-difluoro-4-(4-methylthiazol-5-yl)phenyl)ethyl)-4-hydroxypyrrolidine-2-carboxamide], the DC50 was less than 2.5 nM and the Dmax is more than 75%.

As for `COC[C@@H](NC(=O)[C@@H]1C[C@@H](O)CN1C(=O)[C@@H](c1cc(N2CCC(CN3CCC(O[C@H]4C[C@H](Oc5cc(N6C7CCC6CN(c6cc(-c8ccccc8O)nnc6N)C7)ccn5)C4)CC3)CC2)no1)C(C)C)c1ccc(-c2scnc2C)cc1` [compound 667, (2S,4R)-1-((2R)-2-(3-(4-((4-((1r,3r)-3-((4-(3-(3-amino-6-(2-hydroxyphenyl)pyridazin-4-yl)-3,8-diazabicyclo[3.2.1]octan-8-yl)pyridin-2-yl)oxy)cyclobutoxy)piperidin-1-yl)methyl)piperidin-1-yl)isoxazol-5-yl)-3-methylbutanoyl)-4-hydroxy-N-((S)-2-methoxy-1-(4-(4-methylthiazol-5-yl)phenyl)ethyl)pyrrolidine-2-carboxamide], the DC50 was in the range of 10 to 30 nM and the Dmax was more than 75%.

For `COC[C@H](NC(=O)[C@@H]1C[C@@H](O)CN1C(=O)[C@@H](c1cc(N2CCC(CN3CCC(O[C@H]4C[C@H](Oc5cc(N6C7CCC6CN(c6cc(-c8ccccc8O)nnc6N)C7)ccn5)C4)CC3)CC2)no1)C(C)C)c1ccc(-c2scnc2C)cc1` [compound 668, (2S,4R)-1-((2R)-2-(3-(4-((4-((1r,3r)-3-((4-(3-(3-amino-6-(2-hydroxyphenyl)pyridazin-4-yl)-3,8-diazabicyclo[3.2.1]octan-8-yl)pyridin-2-yl)oxy)cyclobutoxy)piperidin-1-yl)methyl)piperidin-1-yl)isoxazol-5-yl)-3-methylbutanoyl)-4-hydroxy-N-((R)-2-methoxy-1-(4-(4-methylthiazol-5-yl)phenyl)ethyl)pyrrolidine-2-carboxamide], the DC50 was less than 2.5 nM and the Dmax is more than 75%.

On to `COCC[C@@H](NC(=O)[C@@H]1C[C@@H](O)CN1C(=O)[C@@H](c1cc(N2CCC(CN3CCC(O[C@H]4C[C@H](Oc5cc(N6C7CCC6CN(c6cc(-c8ccccc8O)nnc6N)C7)ccn5)C4)CC3)CC2)no1)C(C)C)c1ccc(-c2scnc2C)cc1` [compound 669, (2S,4R)-1-((2R)-2-(3-(4-((4-((1r,3r)-3-((4-(3-(3-amino-6-(2-hydroxyphenyl)pyridazin-4-yl)-3,8-diazabicyclo[3.2.1]octan-8-yl)pyridin-2-yl)oxy)cyclobutoxy)piperidin-1-yl)methyl)piperidin-1-yl)isoxazol-5-yl)-3-methylbutanoyl)-4-hydroxy-N-((R)-3-methoxy-1-(4-(4-methylthiazol-5-yl)phenyl)propyl)pyrrolidine-2-carboxamide], for which the DC50 was 10 to 30 nM and the Dmax lay in the range of 50 to 75%.

(Values after patent publication US12539292B2, “BRM targeting compounds and associated methods of use” (Arvinas Operations, Inc., priority 2018, dated 2026).)
